In paper PMC6171417, “Carbonic anhydrase inhibition with a series of novel benzenesulfonamide-triazole conjugates” (Journal of Enzyme Inhibition and Medicinal Chemistry, 2018):

Columns and labels:
Assay in all cases: cells
Set-up in all cases: species or system NCI human tumour cell line panel
CCRF-CEM = settings: Homo sapiens, CCRF-CEM; growth inhibition (GI%), single dose
HCT-116 = settings: Homo sapiens, HCT-116; growth inhibition (GI%), single dose
MDA-MB-435 = settings: Homo sapiens, MDA-MB-435; growth inhibition (GI%), single dose
NCI-H322M = settings: Homo sapiens, NCI-H322M; growth inhibition (GI%), single dose
SK-OV-3 = settings: Homo sapiens, SK-OV-3; growth inhibition (GI%), single dose
SNB-19 = settings: Homo sapiens, SNB-19; growth inhibition (GI%), single dose
TK-10 = settings: Homo sapiens, TK-10; growth inhibition (GI%), single dose
U251 = settings: Homo sapiens, U-251; growth inhibition (GI%), single dose

N#Cc1nnn(-c2ccc(S(N)(=O)=O)cc2)c1NC(=O)CCl [compound 5, 5]
inhibition at 10 µM (CCRF-CEM): 11.3%
inhibition at 10 µM (HCT-116): 5.4%
inhibition at 10 µM (MDA-MB-435): 0.4%
inhibition at 10 µM (NCI-H322M): 6.6%
inhibition at 10 µM (SK-OV-3): 3.5%
inhibition at 10 µM (SNB-19): 3.8%
inhibition at 10 µM (TK-10): 3.6%
inhibition at 10 µM (U251): 7.7%
